In ChEMBL document CHEMBL3734735, “The effect of N-methylation on transition state mimetic inhibitors of the Plasmodium protease, plasmepsin V” (Medchemcomm, 2015):
Activity calls are given as the source filed them. The rule behind the calls is not given here. Square brackets hold non-standard residues; d marks the D form. Peptide text beside a SMILES is read from it. * marks the point of attachment. Sta = CC(C)C[C@H](N)[C@@H](O)CC(=O)O; NHPhenethyl = c1ccc(CCN*)cc1; NMeV = CN[C@H](C(=O)O)C(C)C; Cbz = O=C(OCc1ccccc1)*

Columns and labels:
[1] = molecular target: Plasmepsin V (Plasmodium falciparum (isolate 3D7)) (UniProt Q8I6Z5); test: Inhibition of plasmepsin 5 in trophozoite stage of transgenic Plasmodium falciparum infected in erythrocytes assessed as suppression of PEXEL processing of GFP-fused EMP3 at 20 uM after 5 hrs by Western blot analysis; type: cell-based
Plasmepsin V = Plasmepsin V (Plasmodium falciparum (isolate 3D7), UniProt Q8I6Z5); test: Inhibition of HA-tagged transgenic Plasmodium falciparum plasmepsin 5 using DABCYL-RNKRTLAQKQ-E-EDANS as substrate after 120 mins by fluorescence plate reader analysis
[2] = Stability in phosphate buffer at 5000 ng/ml at 37 degC at pH 7.4 measured over 24 hrs by LC-MS analysis in presence of porcine pancreatin; type: physicochemical; details: pig, pH 7.4, 24 h
HepG2 = test: Cytotoxicity against human HepG2 cells after 48 hrs by CellTiter Glo assay; type: cell-based; details: HepG2, 48 h
Plasmodium falciparum = test: Antiparasitic activity against early ring-stage of Plasmodium falciparum 3D7 infected in human erythrocytes assessed as inhibition of parasite viability after 72 hrs by flow cytometric analysis; type: functional, organism-based; details: 3D7, 72 h
Serum = test: Metabolic stability in human serum at 5000 ng/ml at 37 degC measured over 55 hrs by LC-MS analysis; type: ADME

Sequence of Plasmepsin V (Q8I6Z5 whole entry): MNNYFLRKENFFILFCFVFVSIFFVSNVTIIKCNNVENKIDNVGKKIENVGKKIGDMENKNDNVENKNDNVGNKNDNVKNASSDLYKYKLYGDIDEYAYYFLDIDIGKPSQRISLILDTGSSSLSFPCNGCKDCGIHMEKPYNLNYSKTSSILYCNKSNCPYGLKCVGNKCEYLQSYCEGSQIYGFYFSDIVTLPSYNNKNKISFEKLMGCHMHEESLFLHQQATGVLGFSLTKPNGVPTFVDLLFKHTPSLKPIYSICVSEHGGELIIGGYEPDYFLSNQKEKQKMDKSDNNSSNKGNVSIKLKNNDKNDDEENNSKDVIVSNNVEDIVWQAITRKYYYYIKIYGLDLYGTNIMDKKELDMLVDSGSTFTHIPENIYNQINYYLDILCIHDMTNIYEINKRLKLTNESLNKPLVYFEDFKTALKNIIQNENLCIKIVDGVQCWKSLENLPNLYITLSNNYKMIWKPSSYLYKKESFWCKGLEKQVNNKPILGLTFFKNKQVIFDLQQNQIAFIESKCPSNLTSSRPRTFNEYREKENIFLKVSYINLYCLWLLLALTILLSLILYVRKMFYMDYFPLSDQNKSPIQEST
Sequence of Plasmepsin V (Plasmodium falciparum (isolate 3D7)) (Q8I6Z5 whole entry, looked up, the tested form may be a part): as the sequence (Q8I6Z5 whole entry) above

SMILES | inhibition [1] | IC50 (Plasmepsin V) [µM] | Stability [2] | Stability (Serum) | EC50 (HepG2) [µM] | EC50 (Plasmodium falciparum) [µM]
CCN(CC)CCCC(C)Nc1ccnc2cc(Cl)ccc12 (centres undefined) [CHLOROQUINE] | – | – | – | – | – | 0.01
CC(C)C[C@H](NC(=O)[C@H](C)N(C)C(=O)[C@H](CCCNC(=N)N)NC(=O)OCc1ccccc1)[C@@H](O)CC(=O)NCCc1ccc(Cl)cc1 | inactive | 48 | Stable | Stable | > 50 | 23.2
CC(C)C[C@H](NC(=O)[C@H](C(C)C)N(C)C(=O)[C@H](CCCNC(=N)N)NC(=O)OCc1ccccc1)[C@@H](O)CC(=O)NCCc1ccccc1 (Cbz-Arg-[NMeV]-[Sta]-NHPhenethyl) | inactive | > 50 | – | – | – | 5.89
COc1cc([C@@H]2c3cc4c(cc3[C@@H](O[C@@H]3O[C@@H]5CO[C@@H](C)O[C@H]5[C@H](O)[C@H]3O)[C@H]3COC(=O)[C@H]23)OCO4)cc(OC)c1O [ETOPOSIDE] | – | – | – | – | 9.8 | –

The next lines start with results.

inhibition [1] | IC50 (Plasmepsin V) [µM] | Stability [2] | Stability (Serum) | SMILES | EC50 (HepG2) [µM] | EC50 (Plasmodium falciparum) [µM]
inactive | 5.35 | Stable | Stable | CC(C)C[C@H](NC(=O)[C@H](C)NC(=O)[C@H](CCCNC(=N)N)NC(=O)OCc1ccccc1)[C@@H](O)CC(=O)N(C)CCc1ccc(Cl)cc1 | > 50 | 20.3
inactive | 0.89 | Unstable | Stable | CC(C)C[C@@H]([C@@H](O)CC(=O)NCCc1ccc(Cl)cc1)N(C)C(=O)[C@H](C)NC(=O)[C@H](CCCNC(=N)N)NC(=O)OCc1ccccc1 | > 50 | 29.2
Active | 0.3 | Stable | Stable | CC(C)C[C@H](NC(=O)[C@H](C)NC(=O)[C@H](CCCNC(=N)N)NC(=O)OCc1ccccc1)[C@@H](O)CC(=O)NCCc1ccc(Cl)cc1 | > 50 | 15.3
Active | 0.026 | – | – | CC(C)C[C@H](NC(=O)[C@@H](NC(=O)[C@H](CCCNC(=N)N)NC(=O)OCc1ccccc1)C(C)C)[C@@H](O)CC(=O)NCCc1ccccc1 (Cbz-Arg-Val-[Sta]-NHPhenethyl) | > 50 | 3.97
inactive | 15.6 | Stable | Stable | CC(C)C[C@H](NC(=O)[C@H](C)NC(=O)[C@H](CCCNC(=N)N)N(C)C(=O)OCc1ccccc1)[C@@H](O)CC(=O)NCCc1ccc(Cl)cc1 | > 50 | 67.8
